Reference: patent publication US8460669B2, “Compositions and methods for identifying response targets and treating flavivirus infection responses” (Academia Sinica, priority 2005, dated 2013)

B1: sDVLR1/CLEC5A: alternatively spliced form of human DVLR1/CLEC5A (aa 43-65 deleted), SEQ ID NO: 73 (protein)
chain: MNWHMIISGLIVVVLKVVGMTLFLLYFPQIFNKSNDGFTTTRSYGTVCPKDWEFYQARCFFLSTSESSWNESRDFCKGKGSTLAIVNTPEKLFLQDITDAEKYFIGLIYHREEKRWRWINNSVFNGNVTNQNQNFNCATIGLTKTFDAASCDISYRRICEKNAK
modifications: Human

Key:
Langerin = molecular target: T1, Langerin (Homo sapiens, UniProt Q9UJ71); experiment: Sugar competition EIA, Fc.Langerin binding to GLPS-F3; conditions: sugar 1 mg/ml
T1 construct: The extracellular domains of lectin receptors, TREMs and TLTs were cloned by the reverse-transcriptase polymerase chain reaction (RT-PCR); made in house; host or cells: 293-F (FreeStyle 293) cells
T1 sequence (Q9UJ71 65-328 limits assumed): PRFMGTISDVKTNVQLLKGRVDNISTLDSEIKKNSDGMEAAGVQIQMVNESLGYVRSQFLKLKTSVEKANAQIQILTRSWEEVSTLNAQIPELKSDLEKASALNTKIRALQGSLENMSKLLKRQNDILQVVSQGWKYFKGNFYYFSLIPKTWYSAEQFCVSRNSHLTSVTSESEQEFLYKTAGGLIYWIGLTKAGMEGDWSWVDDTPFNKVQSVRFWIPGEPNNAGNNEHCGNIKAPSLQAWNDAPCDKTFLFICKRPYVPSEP
Protocol: (§1) The interaction between GLPS-F3 and receptor.Fc was then tested. Unbiotinylated GLPS-F3 was immobilized at 100 ng/well as described above, and 100 μL receptor.Fc fusion protein (1 μg/ml in 2 mM MgCl2/2 mM CaCl2/1% BSA/TBST) was added into each well and incubated for 1 hour at room temperature. After washing with TBST, wells were incubated with peroxidase-conjugated goat anti-human IgG Ab (1:5000 dilution, Jackson ImmunoResearch Laboratories) in blocking buffer at room temperature for 30 min. Wells were incubated with 100 μL TMB substrate for 15 min after TBST washing and read at 450 nm in a Fusion plate reader (Perkin Elmer). The results were normalized with respect to Fc.Dectin-1 binding (Dectin-1 is a known lectin receptor that binds to β-1,3-glucan which is the backbone found in GLPS-F3). FIG. 6B depicts in graphical form the affinity of each receptor for GLPS-F3 relative to Dectin-1. […] There was also weaker but positive GLPS-F3 binding ability (25-50% binding intensity compared to Fc.dectin-1) found in Fc.NKG2D, Fc.MINCLE, Fc.mKCR, DCAL1.Fc, DEC205.Fc, Endo180.Fc and NKp30(NCR3).Fc.
(§2) To understand the interaction of GLPS-F3 with specific innate immunity receptors, the polysaccharides mannan and β-glucan and the monosaccharides D-mannose (Man), D-glucose (Glc), N-acetyl-glucosamine (GlcNAc), D-galactose (Gal), N-acetyl-galactosamine (GalNAc), L-fucose (Fuc) and sialic acid, were used in a competition assay. […] The assays were carried out as in Example 9, with the addition of 1 mg/ml of each polysaccharide or monosaccharide.

DC-SIGN [1] = molecular target: T2, DC-SIGN (Homo sapiens, UniProt Q9NNX6); experiment: Sugar competition EIA, Fc.DC-SIGN binding to GLPS-F3; conditions: sugar 1 mg/ml
T2 construct: The extracellular domains of lectin receptors, TREMs and TLTs were cloned by the reverse-transcriptase polymerase chain reaction (RT-PCR); made in house; host or cells: 293-F (FreeStyle 293) cells
T2 sequence (Q9NNX6 59-404 limits assumed): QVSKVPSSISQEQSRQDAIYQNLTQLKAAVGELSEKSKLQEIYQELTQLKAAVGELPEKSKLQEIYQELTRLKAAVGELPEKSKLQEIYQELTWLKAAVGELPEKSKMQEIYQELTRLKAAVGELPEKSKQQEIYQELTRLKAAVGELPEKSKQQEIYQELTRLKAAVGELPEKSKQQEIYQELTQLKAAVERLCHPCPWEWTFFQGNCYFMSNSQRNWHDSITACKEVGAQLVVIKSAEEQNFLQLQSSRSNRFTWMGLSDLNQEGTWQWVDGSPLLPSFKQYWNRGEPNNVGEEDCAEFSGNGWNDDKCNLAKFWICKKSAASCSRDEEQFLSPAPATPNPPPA
Protocol: as §1, §2

TLR4.Fc = molecular target: T3, TLR4.Fc (Homo sapiens, UniProt O00206); experiment: Sugar competition EIA, TLR4.Fc binding to GLPS-F3; conditions: sugar 1 mg/ml
T3 construct: The extracellular domains of several innate immunity receptors from immune cells were cloned by reverse-transcription polymerase chain reaction (RT-PCR); made in house; host or cells: 293-F (FreeStyle 293) cells
T3 sequence (O00206 24-631 limits assumed): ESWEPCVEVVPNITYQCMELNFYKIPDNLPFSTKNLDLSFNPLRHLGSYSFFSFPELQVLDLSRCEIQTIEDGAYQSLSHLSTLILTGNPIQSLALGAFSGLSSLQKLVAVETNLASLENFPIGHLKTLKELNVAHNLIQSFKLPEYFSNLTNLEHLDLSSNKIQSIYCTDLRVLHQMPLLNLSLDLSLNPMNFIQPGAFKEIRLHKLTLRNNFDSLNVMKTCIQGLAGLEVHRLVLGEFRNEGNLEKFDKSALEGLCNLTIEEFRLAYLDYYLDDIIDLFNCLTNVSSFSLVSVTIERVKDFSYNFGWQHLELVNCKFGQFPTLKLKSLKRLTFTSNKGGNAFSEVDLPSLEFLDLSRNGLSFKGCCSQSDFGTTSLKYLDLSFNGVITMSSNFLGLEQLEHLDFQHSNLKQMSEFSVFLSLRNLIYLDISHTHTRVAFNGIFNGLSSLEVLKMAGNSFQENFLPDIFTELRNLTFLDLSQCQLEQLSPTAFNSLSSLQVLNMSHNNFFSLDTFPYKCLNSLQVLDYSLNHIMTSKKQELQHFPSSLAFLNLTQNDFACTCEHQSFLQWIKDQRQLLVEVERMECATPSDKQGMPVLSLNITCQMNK
Protocol: as §1, §2

MMR.Fc = molecular target: T4, MMR.Fc (Homo sapiens, UniProt P22897); experiment: Sugar competition EIA, MMR.Fc binding to GLPS-F3; conditions: sugar 1 mg/ml
T4 construct: The extracellular domains of lectin receptors, TREMs and TLTs were cloned by the reverse-transcriptase polymerase chain reaction (RT-PCR); made in house; host or cells: 293-F (FreeStyle 293) cells
T4 sequence (P22897 19-1389 limits assumed): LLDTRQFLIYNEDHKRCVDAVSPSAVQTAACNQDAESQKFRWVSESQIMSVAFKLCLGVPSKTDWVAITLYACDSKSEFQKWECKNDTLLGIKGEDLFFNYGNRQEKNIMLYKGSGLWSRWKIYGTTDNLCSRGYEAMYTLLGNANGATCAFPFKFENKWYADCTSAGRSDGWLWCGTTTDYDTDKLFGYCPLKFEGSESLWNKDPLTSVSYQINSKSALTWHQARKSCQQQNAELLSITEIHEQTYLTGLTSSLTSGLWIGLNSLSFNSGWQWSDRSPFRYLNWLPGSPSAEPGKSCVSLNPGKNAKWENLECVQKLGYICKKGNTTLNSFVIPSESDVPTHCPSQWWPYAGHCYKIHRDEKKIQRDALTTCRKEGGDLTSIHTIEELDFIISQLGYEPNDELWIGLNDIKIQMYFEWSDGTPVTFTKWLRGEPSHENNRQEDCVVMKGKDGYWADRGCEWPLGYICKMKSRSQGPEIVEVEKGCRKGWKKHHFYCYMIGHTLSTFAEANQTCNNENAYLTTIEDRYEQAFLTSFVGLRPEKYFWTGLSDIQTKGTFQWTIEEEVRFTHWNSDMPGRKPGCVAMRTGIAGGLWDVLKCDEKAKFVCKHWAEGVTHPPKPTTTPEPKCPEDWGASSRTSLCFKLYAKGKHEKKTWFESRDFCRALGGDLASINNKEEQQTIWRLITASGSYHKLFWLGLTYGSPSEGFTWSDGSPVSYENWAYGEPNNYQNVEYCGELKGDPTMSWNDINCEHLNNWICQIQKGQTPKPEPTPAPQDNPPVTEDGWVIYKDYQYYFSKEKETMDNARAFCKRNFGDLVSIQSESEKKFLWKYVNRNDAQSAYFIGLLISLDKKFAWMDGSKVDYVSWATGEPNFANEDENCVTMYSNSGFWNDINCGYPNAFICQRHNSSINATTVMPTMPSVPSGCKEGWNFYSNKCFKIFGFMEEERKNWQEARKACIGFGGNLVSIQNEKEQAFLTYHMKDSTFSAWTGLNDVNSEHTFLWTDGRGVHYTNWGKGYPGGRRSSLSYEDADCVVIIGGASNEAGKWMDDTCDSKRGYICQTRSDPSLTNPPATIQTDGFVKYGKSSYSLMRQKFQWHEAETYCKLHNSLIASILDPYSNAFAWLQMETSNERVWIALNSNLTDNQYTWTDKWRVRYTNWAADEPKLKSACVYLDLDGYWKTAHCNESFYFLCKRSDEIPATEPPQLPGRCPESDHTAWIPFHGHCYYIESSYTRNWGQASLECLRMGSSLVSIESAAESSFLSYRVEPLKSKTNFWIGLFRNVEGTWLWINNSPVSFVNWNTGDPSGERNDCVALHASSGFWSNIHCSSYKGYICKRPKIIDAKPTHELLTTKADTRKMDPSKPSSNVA
Protocol: as §1, §2

DC-SIGN [2] = molecular target: T5, DC-SIGN (Homo sapiens, UniProt Q9NNX6); experiment: Sugar competition, biotinylated DV binding to DC-SIGN-transfected 293T cells; assay type: cell-based; conditions: flow cytometry
T5 construct: expressed in transfected cells; host or cells: 293T cells
T5 sequence (Q9NNX6 1-404): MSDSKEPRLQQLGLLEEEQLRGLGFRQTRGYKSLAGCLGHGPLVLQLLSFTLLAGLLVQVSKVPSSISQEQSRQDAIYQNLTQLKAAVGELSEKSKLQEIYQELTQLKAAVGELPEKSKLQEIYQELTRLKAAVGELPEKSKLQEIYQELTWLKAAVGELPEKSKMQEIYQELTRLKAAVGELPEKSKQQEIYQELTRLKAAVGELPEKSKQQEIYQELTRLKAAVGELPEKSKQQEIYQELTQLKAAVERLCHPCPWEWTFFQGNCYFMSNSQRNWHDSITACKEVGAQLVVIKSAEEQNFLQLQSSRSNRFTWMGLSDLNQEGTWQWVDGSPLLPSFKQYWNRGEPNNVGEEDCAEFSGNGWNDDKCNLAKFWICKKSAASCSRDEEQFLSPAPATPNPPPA
Protocol: In FIG. 16b, complexes of DV (5×10^6 PFU) with receptor.Fc (5 μg) were immunoprecipitated and detected on westerns with mAb to DV envelope (E) protein. […] FIGS. 16d and 16e show sugar competition assays wherein both DC-SIGN (CLEC4L) and DVLR1/CLEC5A increase DV binding to human 293T cells (FIG. 16d), while addition of sugars inhibits biotinylated DV binding to DC-SIGN- (left panel) or DLVR1/CLEC5A- (right panel) transfected 293T cells in a dose-dependent manner as determined by flow cytometry (FIG. 16e). According to FIG. 16e, MFI represents mean fluorescence intensity. Units (U) for monosaccharide (mannose and fucose) and polysaccharide (mannan) are mM and mg/ml, respectively. […] Data are expressed as the mean±s.d. of three independent experiments. Two-tailed, Student's t-tests were performed.
There are two conserved N-linked glycosylation sites at Asn-67 and Asn-153 of E protein (Pokidysheva, E. et al., Cell 124:485-93 (2006)), and the attached glycans (with terminal fucose and mannose) have been implicated in cellular attachment and viral entry (Modis, Y. et al., J. Virol. 79:1223-1231 (2005)). To investigate the participation of glycans in the association of DVLR1/CLEC5A with DV, virions were incubated with fucose, mannose, or mannan; where the last two sugars are the ligands for DC-SIGN (Mitchell et al., J. Biol. Chem. 276: 28939-28945 ([…])).

Dengue virus = experiment: ELISA of receptor.Fc interaction with Dengue virus; assay type: binding; conditions: receptor.Fc 1 μg; DV 5×10^6
Protocol: One μg of each receptor.Fc fusion protein was coated onto microtiter plates overnight at 4° C. DV (5×10^6 particles) of strain 16681 (a DEN2 strain) in binding buffer (1% BSA, 2 mM CaCl2, 2 mM MgCl2, 50 mM Tris-HCl pH 7.5, 150 mM NaCl) was then added to the plates and the plates were incubated for 2 hours. After washing non-bound virus, a biotinylated anti-DEN2 envelope protein antibody (Wu et al., J Virol, 2002. 76(8): p. 3596-604) was applied to bind to the virus for 1 hour. Diluted horseradish peroxidase-conjugated streptavidin was then added to the plates, followed by a 1 hour incubation. TMB substrate was then added and the plates were read using an ELISA reader at OD450 nm.
The microtiter plate assay was repeated in the presence of EDTA (10 mM) to chelate Ca^++ cations.
The microtiter plate assay was also repeated for DVLR1/CLEC5A.Fc fusion protein with DV particles (5×10^6) that had been 1) preincubated with 500 U of the glycosidase PNGaseF (New England Biolabs, Inc.) overnight at 37° C.; or 2) treated with dithiothreitol (DTTI) (0.1M); or 3) incubated at 95° C. for 5 minutes; or 4) UV irradiated for 5 minutes. The results are shown in FIG. 8D (asterisks indicate where the binding affinity of DVLR1/CLEC5A.Fc fusion protein is altered by modification of the virus relative to non-treated virus; ** p<0.01, *** p<0.001, Student's t test). […]

JEV = experiment: ELISA of DVLR1/CLEC5A.Fc interaction with JEV; assay type: binding, Japanese encephamyelitis virus; conditions: 1 μg; JEV 5×10^6 PFU
Protocol: Like with DV, JEV follows a similar virus infection response pattern, which is believed to be the same or similar in all flaviviruses. […] (1 μg), with JEV and DV (5×10^6 PFU), respectively, were determined by ELISA. DV interacts with human DVLR1/CLEC5A (187 amino acid in length) SEQ ID NO: 72, but not the alternatively spliced form sDVLR1/CLEC5A (aa 43-65 is deleted). SEQ ID NO: 73. […] DAP12 in DV-infected macrophages were precipitated by anti-DAP12 mAb, blotted to nitrocellulose paper after fractionation on SDS-PAGE, followed by incubation with antibodies against phosphotyrosine and DAP12, respectively. JEV-induced DAP12 phosphorylation (m.o.i.=5) is inhibited by pLL3.7/DVLR1/CLEC5A. […] JEV-induced TNF-α secretion is inhibited by […] mAb (right). Data are expressed as the mean±s.d. of three independent experiments.

| Molecule | inhibition of interaction between Fc.Langerin and GLPS-F3 (Langerin) | inhibition of binding of Fc.DC-SIGN to GLPS-F3 (DC-SIGN [1]) | Percentage of binding of TLR4.Fc to GLPS-F3 relative to binding in absence of sugar competitor (TLR4.Fc) | inhibition of interaction between GLPS-F3 and MMR.Fc (MMR.Fc) | inhibition of the DC-SIGN-DV interaction (DC-SIGN [2]) | interaction of receptor.Fc with Dengue virus (ELISA) (Dengue virus) | interaction with JEV (ELISA) (JEV) |
| --- | --- | --- | --- | --- | --- | --- | --- |
| O=C[C@@H](O)[C@@H](O)[C@H](O)[C@H](O)CO [Man, D-mannose] | 26% | 72% | 89 ± 2.6% | 87% | dose-dependent inhibition |  |  |
| B1 |  |  |  |  |  | not | only interacts |
